# Measurements as given in article PMC8903780, “Therapeutic efficacy of an injectable formulation of purinostat mesylate in SU-DHL-6 tumour model” (Annals of Medicine, 2022).
# Structures can show the parent of a compound that is named as a salt. Where two headings read alike, the source gives them in different places. Marks after values point to notes of the source that are not given here.
# Legend:
# [1] = tested on: human double-hit lymphoma SU-DHL-6 cell line xenografts; test: Oral versus intravenous administration study in SU-DHL-6 xenografts; conditions: for Number End/begin / RTV / Tumor Weight (g) X ±SD / Tumor Weight Inhibition (%) / Tumor volume T/C% / animal status / deaths: 16 days; for Body weight (g) X ± SD Begin / Tumor volume (mm^3) X ±SD Begin: begin of treatment; for Body Weight (g) X ±SD End / Tumor volume (mm^3) X ±SD End: end of 16 days treatment; for animal status / deaths: 10 mg/kg
# Method: To determine whether PM is suitable for oral or intravenous administration, the anti-tumor activity and the safety were investigated in a human double-hit lymphoma SU-DHL-6 cell line xenografts established in immunodeficiency mice. Each mouse was injected subcutaneously with 0.1 mL of cell suspension containing 1×10^6 cells. […] Tumor size and body weight were measured during the experimental period and the tumor volumes were calculated according to the formula: volume (mm^3) = length × width^2 × 0.5. When the experimental period was over, all the mice were sacrificed, and the tumor was weighed and photographed.
# Ki-67 = test: Immunohistochemical detection of Ki-67 in tumour tissue; format: in vivo, NOD/SCID mice; conditions: immunostaining after PM treatment, SU-DHL-6 subcutaneous tumour
# Source text: (§1) The proliferation of tumour cells was detected by immune histochemical staining with the primary antibody of Ki-67 (Lab Vision, MA, USA). DNA double-stranded breaks were investigated by staining with the primary antibody of H2A histone family member X (γH2AX, Upstate Biotechnology, Lake Placid, NY, USA). Primary antibodies of acetyl histone H4 (Ac-H4, Upstate Biotechnology, Lake Placid, NY, USA) were used to detect the acetylation of Histone H4. FITC-labelled secondary antibodies (F-0382; Sigma) were applied with a concentration of 1:500. The images were taken with the Nikon E800 scope.
# γH2AX = test: Immunohistochemical detection of γH2AX in tumour tissue; format: in vivo, NOD/SCID mice; conditions: immunostaining after PM treatment, SU-DHL-6 subcutaneous tumour
# Source text: as §1
# [2] = tested on: human double-hit lymphoma SU-DHL-6 xenograft tumours; format: in vivo
# Method: (§2) To better determine the anti-tumour activity of the PM/HP-β-CD complex, the SU-DHL-6 cell line xenografts were established in immunodeficiency mice. The NOD/SCID mice were subcutaneously inoculated 7 × 10^6 cells per mouse. […] A mimic of HyperCVAD regimen, standard chemotherapy for B cell lymphoma ([22],[23]), especially aggressive subtypes, for example, double-hit lymphoma, was set as a positive control group for comparison (Table 2). Satellite groups were set up in the 10 mg/kg group, 20 mg/kg group, and the Hyper-CVAD group. Animals in the satellite groups were not sacrificed at the end of the treatment and underwent long-term treatment for further investigation. In the survival study, the animal mortality criterion was that the tumour volume reached 3000 mm^3 or the individual animal died, and the animal survival time was statistically analysed.
# When the experimental period was over, the tumour was weighed and photographed, the main organs and tumours were collected, fixed, and embedded in paraffin for Histological and immunohistochemical analysis.
# [3] = tested on: acetyl histone H4 (Ac-H4); test: Immunohistochemical detection of Ac-H4 in tumour tissue; format: in vivo, NOD/SCID mice; conditions: immunostaining after PM treatment, SU-DHL-6 subcutaneous tumour
# Source text: as §1
# SU-DHL-6 cells [4] = test: In vitro cytotoxicity study (MTT); format: cell-based; conditions: Homo sapiens, 48 h
# Method: To investigate the anti-tumour proliferation effect of PM/HP-β-CD, in vitro cytotoxicity test was performed. After being seeded with 96-well plates, the in vitro cultured cells were allowed to acclimate for about 1 h. The experimental group was added with 100 μL of medium containing free PM, HP-β-CD, or PM/HP-β-CD with different concentrations, and the control group was added with an equal volume of fresh medium. Each group was set up with 3 parallel holes and a cultured incubator with 5% CO2 at 37 °C. At 48 h, the survival rate of each group was calculated with the MTT method, and the IC50 value was fitted.
# [5] = Phase solubility analysis of PM in HP-β-CD solutions; format: physicochemical; conditions: inclusion of PM by HP-β-CD
# Method: Excess PM were added into 6 mL HP-β-CD solutions ranged from 0 to 150 mg/mL [14, 19]. The mixture solution was stirred at 1000 rpm for 24 h at 37 °C and filtered using 0.22 μm Millipore filtration. The apparent solubility of PM was calculated, and the stability constant (Ks) was calculated as the Higuchi-Connors equation, Equation (a). The Gibbs free energy (ΔG) was calculated as Equation (b), R represents the general gas constant and T represents the Kelvin temperature. (a) Ks=slope/(S0×(1–slope)) (b) ΔG=−RTlnKs
# [6] = tested on: SU-DHL-6 subcutaneous tumours; test: Survival study in satellite groups of the SU-DHL-6 subcutaneous model; format: in vivo, NOD/SCID mice; conditions: long-term treatment, death criterion tumour volume 3000 mm^3 or death
# Method: as §2
# SU-DHL-6 cells [7] = test: Annexin V-FITC/PI flow cytometry apoptosis assay; format: cell-based, human; conditions: 48 h
# Method: The pro-apoptotic effect of the PM/HP-β-CD complex on SU-DHL-6 cells was investigated by flow cytometry. […] cells in good condition were collected and inoculated in the six-well plate with 2⋄10^5 cells per well. After being cultured for 24 h, cells were treated with PM and PM/HP-β-CD inclusion at 3 nM and 6 nM, using LBH589 at 6 nM as the positive control. The cells without drug treatment were the negative control. After 48 h incubation, the cells were then processed by annexin V-FITC/PI staining as the manufacturer’s instructions (KeyGen, 100 assays).
# [8] = In vivo pharmacokinetics after oral or intravenous administration; conditions: SD rats, 10 mg/kg; for Cmax: read-out: maximum value (Cmax) of plasma concentration
# Method: Adult SD rats (180–220 g) were used to investigate the in vivo kinetics of PM after oral or intravenous administration. The rats were fasted overnight and divided into oral and intravenous groups, containing three male and three female rats in each group. Then, 10 mg/kg of PM was administered in each rat. 0.2 mL of jugular vein blood samples were collected at a predetermined time interval of 0, 5, 15, 30, 60, 120, 240, 360, 480, and 600 min, centrifuged at 1500 rpm for 15 min at 4 °C to separate the plasma, and stored at −80 °C for the analysis by UPLC-MS. After the test, Phoenix WinNonlin software and non-compartmental analysis were used to calculate parameters such as maximum plasma concentration (Cmax), plasma clearance (CL), time to achieve maximum plasma concentration (Tmax), steady-state apparent distribution volume (Vdss), elimination half-life (t1/2), area under the concentration-time curve (AUC), and related bioavailability.
# [9] = both sexes, rat, plasma, intravenous administration
# [10] = both sexes, rat, plasma, oral administration
# [11] = positive control groups, dose column – (RTX 10 mg/kg), 14 days
# [12] = positive control groups, dose column – (RTX 10 mg/kg), begin of treatment
# [13] = positive control groups, dose column – (RTX 10 mg/kg), end of 14 days treatment
compound,measurement,setting,value
"CN(Cc1nc2c(N3CCOCC3)nc(-c3ccc(N)cc3)nc2n1C)c1ncc(C(=O)NO)cn1 [PM, Purinostat mesylate]",Number End/begin,[1]; i.v. 10 mg/kg (PM/HP-β-CD),8/8
same,RTV,[1]; i.v. 10 mg/kg (PM/HP-β-CD),6.84^cfi
same,Tumor Weight (g) X ±SD,[1]; i.v. 10 mg/kg (PM/HP-β-CD),1.51±0.49^cfi g
same,Tumor Weight Inhibition (%),[1]; i.v. 10 mg/kg (PM/HP-β-CD),69.96%
same,Tumor volume T/C%,[1]; i.v. 10 mg/kg (PM/HP-β-CD),30.87%
same,Body weight (g) X ± SD Begin,[1]; i.v. 10 mg/kg (PM/HP-β-CD),22.6 ± 1.7 g
same,Tumor volume (mm^3) X ±SD Begin,[1]; i.v. 10 mg/kg (PM/HP-β-CD),194.6±26.1 mm^3
same,Body Weight (g) X ±SD End,[1]; i.v. 10 mg/kg (PM/HP-β-CD),24.9 ± 1.9 g
same,Tumor volume (mm^3) X ±SD End,[1]; i.v. 10 mg/kg (PM/HP-β-CD),1321.9±317.2 mm^3
same,animal status / deaths,[1]; oral group,one of the PM oral groups died
same,Number End/begin,[1]; p.o. 10 mg/kg (PM suspension),7/8
same,RTV,[1]; p.o. 10 mg/kg (PM suspension),16.71^a
same,Tumor Weight (g) X ±SD,[1]; p.o. 10 mg/kg (PM suspension),4.57 ± 0.99 g
same,Tumor Weight Inhibition (%),[1]; p.o. 10 mg/kg (PM suspension),9.16%
same,Tumor volume T/C%,[1]; p.o. 10 mg/kg (PM suspension),75.46%
same,Body weight (g) X ± SD Begin,[1]; p.o. 10 mg/kg (PM suspension),21.6 ± 1.2 g
same,Tumor volume (mm^3) X ±SD Begin,[1]; p.o. 10 mg/kg (PM suspension),199.5±22.5 mm^3
same,Body Weight (g) X ±SD End,[1]; p.o. 10 mg/kg (PM suspension),24.9 ± 3.0 g
same,Tumor volume (mm^3) X ±SD End,[1]; p.o. 10 mg/kg (PM suspension),3300.6±715.1 mm^3
same,animal status / deaths,[1]; venous group,did not have animals in abnormal status
same,expression of Ki-67 in tumour tissue,Ki-67,decreased
same,expression of γH2AX in tumour tissue,γH2AX,increased
same,Body weight (g) X ± SD Begin,"[2]; mouse, in vivo, iv, 2.5 mg/kg",22.0 ± 0.3 g
same,Number End/begin,"[2]; mouse, in vivo, iv, 2.5 mg/kg",7/7
same,RTV,"[2]; mouse, in vivo, iv, 2.5 mg/kg",14.21^begkmp
same,Tumour volume (mm^3) X ± SD Begin,"[2]; mouse, in vivo, iv, 2.5 mg/kg",140.3 ± 23.7 mm^3
same,Tumour volume (mm^3) X ± SD End,"[2]; mouse, in vivo, iv, 2.5 mg/kg",1970.1 ± 638.3 mm^3
same,Tumour volume T/C%,"[2]; mouse, in vivo, iv, 2.5 mg/kg",54.53%
same,Tumour weight (g) X ± SD,"[2]; mouse, in vivo, iv, 2.5 mg/kg",2.10 ± 0.98^cekmp g
same,Tumour weight Inhibition (%),"[2]; mouse, in vivo, iv, 2.5 mg/kg",57.35%
same,Body weight (g) X ± SD Begin,"[2]; mouse, in vivo, iv, 5 mg/kg",22.3 ± 0.5 g
same,Number End/begin,"[2]; mouse, in vivo, iv, 5 mg/kg",7/7
same,RTV,"[2]; mouse, in vivo, iv, 5 mg/kg",8.26^cfiloq
same,Tumour volume (mm^3) X ± SD Begin,"[2]; mouse, in vivo, iv, 5 mg/kg",146.2 ± 26.5 mm^3
same,Tumour volume (mm^3) X ± SD End,"[2]; mouse, in vivo, iv, 5 mg/kg",1150.0 ± 510.6 mm^3
same,Tumour volume T/C%,"[2]; mouse, in vivo, iv, 5 mg/kg",31.69%
same,Tumour weight (g) X ± SD,"[2]; mouse, in vivo, iv, 5 mg/kg",1.39 ± 0.47^cfhlnr g
same,Tumour weight Inhibition (%),"[2]; mouse, in vivo, iv, 5 mg/kg",71.80%
same,Body weight (g) X ± SD Begin,"[2]; mouse, in vivo, iv, 10 mg/kg",22.3 ± 0.5 g
same,Number End/begin,"[2]; mouse, in vivo, iv, 10 mg/kg",7/7
same,RTV,"[2]; mouse, in vivo, iv, 10 mg/kg",7.39 ^cfiloq
same,Tumour volume (mm^3) X ± SD Begin,"[2]; mouse, in vivo, iv, 10 mg/kg",150.9 ± 32.6 mm^3
same,Tumour volume (mm^3) X ± SD End,"[2]; mouse, in vivo, iv, 10 mg/kg",1084.2 ± 502.8 mm^3
same,Tumour volume T/C%,"[2]; mouse, in vivo, iv, 10 mg/kg",28.37%
same,Tumour weight (g) X ± SD,"[2]; mouse, in vivo, iv, 10 mg/kg",0.90 ± 0.43^cfilor g
same,Tumour weight Inhibition (%),"[2]; mouse, in vivo, iv, 10 mg/kg",81.67%
same,Body weight (g) X ± SD Begin,"[2]; mouse, in vivo, iv, 20 mg/kg",22.2 ± 0.3 g
same,Number End/begin,"[2]; mouse, in vivo, iv, 20 mg/kg",7/7
same,RTV,"[2]; mouse, in vivo, iv, 20 mg/kg",4.31^cfilor
same,Tumour volume (mm^3) X ± SD Begin,"[2]; mouse, in vivo, iv, 20 mg/kg",158.9 ± 22.6 mm^3
same,Tumour volume (mm^3) X ± SD End,"[2]; mouse, in vivo, iv, 20 mg/kg",664.3 ± 190.7 mm^3
same,Tumour volume T/C%,"[2]; mouse, in vivo, iv, 20 mg/kg",16.53%
same,Tumour weight (g) X ± SD,"[2]; mouse, in vivo, iv, 20 mg/kg",0.73 ± 0.28 ^cfilor g
same,Tumour weight Inhibition (%),"[2]; mouse, in vivo, iv, 20 mg/kg",85.20%
same,expression of Ac-H4 in tumour tissue,[3],increased
same,IC50,SU-DHL-6 cells [4],1.88 nM
same,Gibbs free energy,[5],-5.055 kcal/mol
same,Median survival (day),[6]; PM for Injection 10 mg/kg,30^bei day
same,Median survival (day),[6]; PM for Injection 20 mg/kg,30 ^bei day
same,apoptotic SU-DHL-6 cells,SU-DHL-6 cells [7]; 3 nM,14.99%
same,apoptotic SU-DHL-6 cells,SU-DHL-6 cells [7]; 6 nM,55.2%
same,CL,[8]; p.o.,7280 ± 3290.7 mL/min/kg
same,Tmax,"[8]; both sexes, rat, plasma, iv",4.67 min
same,clearance,"[8]; both sexes, rat, plasma, iv",225 mL/min/kg
same,half-life,"[8]; both sexes, rat, plasma, iv",20.4 ± 19.7 min
same,Tmax,"[8]; both sexes, rat, plasma, po",5.67 min
same,half-life,"[8]; both sexes, rat, plasma, po",97.2 ± 41.5 min
same,AUC,[8]; [9],837 ± 277 ng·h/mL
same,Cmax,[8]; [9],3140 ± 1320 ng/mL
same,AUC,[8]; [10],56.2 ± 24.6 ng·h/mL
same,Cmax,[8]; [10],49.3 ± 26.4 ng/mL
same,bioavailability,"[8]; both sexes, rat, plasma, oral versus intravenous, read-out: calculated bioavailability",6.71%
"Rituximab [RTX, reference compound]",RTV,[2]; [11],24.16
same,Tumour volume T/C%,[2]; [11],92.71%
same,Tumour weight (g) X ± SD,[2]; [11],3.47 ± 1.07^ad g
same,Tumour weight Inhibition (%),[2]; [11],29.47%
same,Body weight (g) X ± SD Begin,[2]; [12],22.4 ± 0.4 g
same,Tumour volume (mm^3) X ± SD Begin,[2]; [12],153.7 ± 33.1 mm^3
same,Body Weight (g) X ±SD End,[2]; [13],25.1 ± 1.0 g
same,Tumour volume (mm^3) X ± SD End,[2]; [13],3505.3 ± 917.1 mm^3
same,Number End/begin,"[2]; positive control groups, dose column – (RTX 10 mg/kg), regimens Table 2, 14 days",7/7
